Test results reported in PubChem BioAssay (NCI).
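These data come from cells grown in 96-well plates and exposed to compound for 48 hours at five concentrations. GI50 = concentration required for 50% inhibition of growth. The concentration for full growth arrest is given as TGI.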

How the values were obtained:
Test in all cases: inhibition of tumour cell growth, NCI panel, 48 h
SK-MEL-28 melanoma = test system: SK-MEL-28 melanoma
CAKI-1 renal = test system: CAKI-1 renal
LOX IMVI melanoma = test system: LOX IMVI melanoma
SF-268 CNS = test system: SF-268 CNS
MALME-3M melanoma = test system: MALME-3M melanoma
NCI-H23 lung = test system: NCI-H23 lung
OVCAR-3 ovarian = test system: OVCAR-3 ovarian
SF-539 CNS = test system: SF-539 CNS
NCI-H522 lung = test system: NCI-H522 lung
MCF7 breast = test system: MCF7 breast

| SMILES | TGI (SK-MEL-28 melanoma) [µM] | TGI (CAKI-1 renal) [µM] | TGI (LOX IMVI melanoma) [µM] | TGI (SF-268 CNS) [µM] | TGI (MALME-3M melanoma) [µM] | TGI (NCI-H23 lung) [µM] | TGI (OVCAR-3 ovarian) [µM] | TGI (SF-539 CNS) [µM] | TGI (NCI-H522 lung) [µM] | GI50 (SK-MEL-28 melanoma) [µM] | GI50 (SF-539 CNS) [µM] | GI50 (NCI-H522 lung) [µM] | GI50 (CAKI-1 renal) [µM] | GI50 (SF-268 CNS) [µM] | GI50 (MALME-3M melanoma) [µM] | GI50 (NCI-H23 lung) [µM] | GI50 (MCF7 breast) [µM] | TGI (MCF7 breast) [µM] | GI50 (OVCAR-3 ovarian) [µM] | GI50 (LOX IMVI melanoma) [µM] |
| --- | --- | --- | --- | --- | --- | --- | --- | --- | --- | --- | --- | --- | --- | --- | --- | --- | --- | --- | --- | --- |
| CCOC(=O)C1(Cc2ccc3ccccc3c2)CCCCCN1 (centres undefined) | 88.9 | > 100 | 39.6 | > 100 | 33.9 | > 100 | > 100 | – | – | – | – | – | – | – | – | – | – | – | – | – |
| Cc1cccc(N=C2NC(=O)C(CC(=O)Nc3ccc(Cl)cc3C)S2)c1 (centres undefined) | > 100 | > 100 | > 100 | > 100 | > 100 | > 100 | > 100 | > 100 | > 100 | – | – | – | – | – | – | – | – | – | – | – |
| CC12C(=O)N(CCN)C(=O)C1C1c3ccccc3C2c2ccccc21 (centres undefined) | > 100 | > 100 | – | > 100 | > 100 | > 100 | > 100 | > 100 | > 100 | – | – | – | – | – | – | – | – | – | – | – |
| CCOC(=O)N1CCC(=O)C[C@@H]1C/C=C/P1(=O)O[C@H](c2ccccc2)C(C)N1C(C)C (some centres undefined) | > 100 | > 100 | – | > 100 | > 100 | > 100 | > 100 | > 100 | > 100 | – | – | – | – | – | – | – | – | – | – | – |
| O=C(/C=C/c1ccc(Cl)c(Cl)c1)C1CCC(Cl)CC1 (centres undefined) | 31.4 | 50.1 | 30.7 | 37.1 | 41.1 | 38.8 | 28.4 | 33.6 | 32.9 | – | – | – | – | – | – | – | – | – | – | – |
| Nn1c(N=Nc2c(O)[nH]c3ccccc23)n[nH]c1=S | > 100 | > 100 | > 100 | > 100 | > 100 | > 100 | > 100 | > 100 | > 100 | – | – | – | – | – | – | – | – | – | – | – |
| N#Cc1c(Oc2ccc(F)c(NC(=O)Cc3cccc(C(F)(F)F)c3)c2)ccc2nc(NC(=O)C3CC3)sc12 | > 100 | > 100 | – | > 100 | 0.0476 | > 100 | > 100 | > 27.2 | > 25 | 0.0292 | 0.436 | 0.942 | 0.744 | 1.35 | 0.0101 | 0.714 | 1.11 | > 100 | 2.3 | – |
| COC(=O)C1=Cc2c(OC)cc(OC)c(OC)c2[C@H](c2cc(OC)c(OC)cc2OC)C1C(=O)OC (some centres undefined) | > 100 | > 100 | > 100 | > 100 | > 100 | > 100 | > 100 | > 100 | > 100 | – | – | – | – | – | – | – | – | – | – | – |
| CCC[CH2][Sn]1([CH2]CCC)[O]C(=O)c2cc(C)ccc2[O]1 | 2.03 | 0.785 | 1.13 | 0.959 | 0.938 | 1.29 | 1.91 | 1.66 | 0.232 | 0.682 | 0.521 | 0.0859 | 0.169 | 0.268 | 0.112 | 0.332 | – | – | 0.614 | 0.309 |
| C[C@]12CCCC(=O)C1C[C@H](C(=O)O)CC2 (some centres undefined) | > 100 | > 100 | > 100 | > 100 | > 100 | > 100 | > 100 | > 100 | > 100 | – | – | – | – | – | – | – | – | – | – | – |
| CCOC(=O)CNC(=O)C(CSC(=O)N(C)O)NC(=O)CCC(N)C(=O)O (centres undefined) | > 2000 | > 2000 | – | > 2000 | > 2000 | > 2000 | > 2000 | – | > 2000 | > 2000 | – | > 2000 | > 2000 | > 2000 | > 2000 | > 2000 | – | – | > 2000 | > 2000 |
| CP(C)C.[Ag][I] | > 100 | > 100 | > 100 | > 100 | > 100 | > 100 | > 100 | > 100 | – | – | – | – | – | – | – | – | – | – | – | – |
| O=C1CCC(=O)C(C(=O)CCC(=O)Nc2cccc(Cl)c2)C1 (centres undefined) | – | > 100 | > 100 | – | > 100 | > 100 | > 100 | > 100 | > 100 | – | – | – | – | – | – | – | – | – | – | – |
| CCOC(=O)C1CC/C(=C(/C#N)C(=O)OC)N1 (centres undefined) | > 100 | > 100 | > 100 | > 100 | – | > 100 | > 100 | > 100 | > 100 | – | – | – | – | – | – | – | – | – | – | – |
| NC(=O)CCC(NC(=O)C(F)(F)F)C(=O)O (centres undefined) | > 100 | > 100 | > 100 | > 100 | > 100 | > 100 | > 100 | > 100 | > 100 | – | – | – | – | – | – | – | – | – | – | – |
| CC(C)NC(=O)O/N=C1\CCC2[C@@H]3CC=C4C[C@@H](OC(=O)NC(C)C)CC[C@]4(C)C3CC[C@]12C (some centres undefined) | 3.26 | 4.29 | 2.27 | 3.22 | 0.983 | 3.79 | 3.6 | – | 3.4 | – | – | – | – | – | – | – | – | – | – | – |
